Laboratory results as given in PubChem BioAssay AID2060895 (Molecular Pharmacology Branch, DTP, NCI, 2025).

System: PDC 899932-113-R3-J6 complex spheroid viability
Assay: Anticancer human tumor 899932-113-R3-J6-PDC patient-derived melanoma cell line growth inhibition [RAS]
Details: for IC50: curve of first compound; for viability, T/C: stronger effect = lower value
Summary of the method: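 Agents were tested in combination matrices in half-log decrements from a top concentration at or near clinical Cmax (10 microM if undetermined). Targets were multi-cell spheroids of tumour lines plus HUVEC and MSC stromal cells.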

[1] = second compound 0.0316 µM, first compound 0.0316 µM
[2] = second compound 0.0316 µM, first compound 0.1 µM
[3] = second compound 0.0316 µM, first compound 0.316 µM
[4] = second compound 0.0316 µM, first compound 1 µM
[5] = second compound 0.1 µM, first compound 0.0316 µM
[6] = second compound 0.1 µM, first compound 0.1 µM
[7] = second compound 0.1 µM, first compound 0.316 µM
[8] = second compound 0.1 µM, first compound 1 µM
[9] = second compound 0.316 µM, first compound 0.0316 µM
[10] = second compound 0.316 µM, first compound 0.1 µM
[11] = second compound 0.316 µM, first compound 0.316 µM
[12] = second compound 0.316 µM, first compound 1 µM
[13] = second compound 1 µM, first compound 0.0316 µM
[14] = second compound 1 µM, first compound 0.1 µM
[15] = second compound 1 µM, first compound 0.316 µM
[16] = second compound 1 µM, first compound 1 µM
[17] = second compound 3.16 µM, first compound 0.0316 µM
[18] = second compound 3.16 µM, first compound 0.1 µM
[19] = second compound 3.16 µM, first compound 0.316 µM
[20] = second compound 3.16 µM, first compound 1 µM
[21] = second compound 10 µM, first compound 0.0316 µM
[22] = second compound 10 µM, first compound 0.1 µM
[23] = second compound 10 µM, first compound 0.316 µM
[24] = second compound 10 µM, first compound 1 µM
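Throughout, for viability, T/C: spheroids exposed to agents for seven days before readout; 100% = DMSO vehicle control wells.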

SMILES: C=CC(=O)N1CCN(c2nc(OCC3CCCN3C)nc3c(F)c(-c4nc(N)cc(C)c4C(F)(F)F)c(Cl)cc23)C(C)C1 (stereo unspecified) + C#Cc1c(F)ccc2cc(O)cc(-c3ncc4c(N5CC6CCC(C5)N6)nc(OCC56CCCN5CC(F)C6)nc4c3F)c12
- IC50 (second compound 0.0316 µM): > 1000 nM
- IC50 (second compound 0.1 µM): > 1000 nM
- IC50 (second compound 0.316 µM): > 1000 nM
- IC50 (second compound 1 µM): > 1000 nM
- IC50 (second compound 3.16 µM): > 1000 nM
- IC50 (second compound 10 µM): > 1000 nM
- viability, T/C (second compound 0.0316 µM, first compound 0.00316 µM): 116%
- viability, T/C (second compound 0.0316 µM, first compound 0.01 µM): 107%
- viability, T/C [1]: 101%
- viability, T/C [2]: 108%
- viability, T/C [3]: 110%
- viability, T/C [4]: 104%
- viability, T/C (second compound 0.1 µM, first compound 0.00316 µM): 112%
- viability, T/C (second compound 0.1 µM, first compound 0.01 µM): 106%
- viability, T/C [5]: 105%
- viability, T/C [6]: 117%
- viability, T/C [7]: 111%
- viability, T/C [8]: 106%
- viability, T/C (second compound 0.316 µM, first compound 0.00316 µM): 112%
- viability, T/C (second compound 0.316 µM, first compound 0.01 µM): 115%
- viability, T/C [9]: 107%
- viability, T/C [10]: 108%
- viability, T/C [11]: 117%
- viability, T/C [12]: 112%
- viability, T/C (second compound 1 µM, first compound 0.00316 µM): 120%
- viability, T/C (second compound 1 µM, first compound 0.01 µM): 108%
- viability, T/C [13]: 115%
- viability, T/C [14]: 112%
- viability, T/C [15]: 125%
- viability, T/C [16]: 102%
- viability, T/C (second compound 3.16 µM, first compound 0.00316 µM): 129%
- viability, T/C (second compound 3.16 µM, first compound 0.01 µM): 113%
- viability, T/C [17]: 120%
- viability, T/C [18]: 133%
- viability, T/C [19]: 124%
- viability, T/C [20]: 110%
- viability, T/C (second compound 10 µM, first compound 0.00316 µM): 118%
- viability, T/C (second compound 10 µM, first compound 0.01 µM): 115%
- viability, T/C [21]: 122%
- viability, T/C [22]: 125%
- viability, T/C [23]: 110%
- viability, T/C [24]: 102%

SMILES: CC(=O)OC12COC1CC(O)C1(C)C(=O)C(O)C3=C(C)C(OC(=O)C(O)C(NC(=O)OC(C)(C)C)c4ccccc4)CC(O)(C(OC(=O)c4ccccc4)C21)C3(C)C (stereo unspecified) + C#Cc1c(F)ccc2cc(O)cc(-c3ncc4c(N5CC6CCC(C5)N6)nc(OCC56CCCN5CC(F)C6)nc4c3F)c12
- IC50 (second compound 0.0316 µM): < 31.6 nM
- IC50 (second compound 0.1 µM): < 31.6 nM
- IC50 (second compound 0.316 µM): < 31.6 nM
- IC50 (second compound 1 µM): < 31.6 nM
- IC50 (second compound 3.16 µM): < 31.6 nM
- IC50 (second compound 10 µM): < 31.6 nM
- viability, T/C [1]: 33.1%
- viability, T/C [2]: 32.1%
- viability, T/C [3]: 39.9%
- viability, T/C [4]: 48.3%
- viability, T/C (second compound 0.0316 µM, first compound 3.16 µM): 67.1%
- viability, T/C (second compound 0.0316 µM, first compound 10 µM): 67.7%
- viability, T/C [5]: 31.8%
- viability, T/C [6]: 31.7%
- viability, T/C [7]: 36.1%
- viability, T/C [8]: 49.5%
- viability, T/C (second compound 0.1 µM, first compound 3.16 µM): 74.5%
- viability, T/C (second compound 0.1 µM, first compound 10 µM): 81.8%
- viability, T/C [9]: 32.3%
- viability, T/C [10]: 30.5%
- viability, T/C [11]: 38.8%
- viability, T/C [12]: 53.4%
- viability, T/C (second compound 0.316 µM, first compound 3.16 µM): 67.4%
- viability, T/C (second compound 0.316 µM, first compound 10 µM): 82.8%
- viability, T/C [13]: 30.7%
- viability, T/C [14]: 35%
- viability, T/C [15]: 41.3%
- viability, T/C [16]: 45.5%
- viability, T/C (second compound 1 µM, first compound 3.16 µM): 75.1%
- viability, T/C (second compound 1 µM, first compound 10 µM): 78.9%
- viability, T/C [17]: 32.1%
- viability, T/C [18]: 34.4%
- viability, T/C [19]: 37.5%
- viability, T/C [20]: 49.6%
- viability, T/C (second compound 3.16 µM, first compound 3.16 µM): 63.2%
- viability, T/C (second compound 3.16 µM, first compound 10 µM): 73.9%
- viability, T/C [21]: 35.3%
- viability, T/C [22]: 28.9%
- viability, T/C [23]: 36.4%
- viability, T/C [24]: 46.5%
- viability, T/C (second compound 10 µM, first compound 3.16 µM): 66.4%
- viability, T/C (second compound 10 µM, first compound 10 µM): 69.7%

SMILES: CCc1c2c(nc3ccc(O)cc13)-c1cc3c(c(=O)n1C2)COC(=O)[C@]3(O)CC + C#Cc1c(F)ccc2cc(O)cc(-c3ncc4c(N5CC6CCC(C5)N6)nc(OCC56CCCN5CC(F)C6)nc4c3F)c12
- IC50 (second compound 0.0316 µM): 11.8 nM
- IC50 (second compound 0.1 µM): 20.8 nM
- IC50 (second compound 0.316 µM): 36.6 nM
- IC50 (second compound 1 µM): 37.1 nM
- IC50 (second compound 3.16 µM): 33.1 nM
- IC50 (second compound 10 µM): 32.2 nM
- viability, T/C (second compound 0.0316 µM, first compound 0.000949 µM): 108%
- viability, T/C (second compound 0.0316 µM, first compound 0.003 µM): 63.5%
- viability, T/C (second compound 0.0316 µM, first compound 0.00949 µM): 56.8%
- viability, T/C (second compound 0.0316 µM, first compound 0.03 µM): 45.1%
- viability, T/C (second compound 0.0316 µM, first compound 0.0949 µM): 41.5%
- viability, T/C (second compound 0.0316 µM, first compound 0.3 µM): 34.2%
- viability, T/C (second compound 0.1 µM, first compound 0.000949 µM): 85.7%
- viability, T/C (second compound 0.1 µM, first compound 0.003 µM): 69.6%
- viability, T/C (second compound 0.1 µM, first compound 0.00949 µM): 50.6%
- viability, T/C (second compound 0.1 µM, first compound 0.03 µM): 50.2%
- viability, T/C (second compound 0.1 µM, first compound 0.0949 µM): 44.5%
- viability, T/C (second compound 0.1 µM, first compound 0.3 µM): 33.2%
- viability, T/C (second compound 0.316 µM, first compound 0.000949 µM): 81.2%
- viability, T/C (second compound 0.316 µM, first compound 0.003 µM): 74.3%
- viability, T/C (second compound 0.316 µM, first compound 0.00949 µM): 54%
- viability, T/C (second compound 0.316 µM, first compound 0.03 µM): 54%
- viability, T/C (second compound 0.316 µM, first compound 0.0949 µM): 42.6%
- viability, T/C (second compound 0.316 µM, first compound 0.3 µM): 35.2%
- viability, T/C (second compound 1 µM, first compound 0.000949 µM): 91.7%
- viability, T/C (second compound 1 µM, first compound 0.003 µM): 74%
- viability, T/C (second compound 1 µM, first compound 0.00949 µM): 63%
- viability, T/C (second compound 1 µM, first compound 0.03 µM): 52.2%
- viability, T/C (second compound 1 µM, first compound 0.0949 µM): 43.3%
- viability, T/C (second compound 1 µM, first compound 0.3 µM): 32.2%
- viability, T/C (second compound 3.16 µM, first compound 0.000949 µM): 99%
- viability, T/C (second compound 3.16 µM, first compound 0.003 µM): 74.5%
- viability, T/C (second compound 3.16 µM, first compound 0.00949 µM): 60%
- viability, T/C (second compound 3.16 µM, first compound 0.03 µM): 54.2%
- viability, T/C (second compound 3.16 µM, first compound 0.0949 µM): 44.9%
- viability, T/C (second compound 3.16 µM, first compound 0.3 µM): 33.5%
- viability, T/C (second compound 10 µM, first compound 0.000949 µM): 101%
- viability, T/C (second compound 10 µM, first compound 0.003 µM): 71%
- viability, T/C (second compound 10 µM, first compound 0.00949 µM): 66.8%
- viability, T/C (second compound 10 µM, first compound 0.03 µM): 47.3%
- viability, T/C (second compound 10 µM, first compound 0.0949 µM): 47.9%
- viability, T/C (second compound 10 µM, first compound 0.3 µM): 33.9%
